Tests used:
Format in all cases: physicochemical
[1] = Stabilities of emulsions relating to added concentration of the azacycloalkane derivative (Example 2); conditions: for Observation after 3 days standing / Observation after 7 days standing: room temperature
Experimental: Each 5 ml of a 1% (W/V) solution preliminarily prepared by dissolving dispotassium glycyrrhizate in distilled water was poured in each of 8 10-ml-test tubes, and thereto was added 1[2-(decylthio)ethyl] azacyclopentan-2-one chosen from the azacycloalkane derivatives so as to make a concentration ranging from 0 to 10%. Then, the mixture was agitated for 1 minute using Biomixer (NIHON SEIKI SEISAKUSHO) (15,000 rpm), to prepare each emulsion. The state of dispersion just after the preparation,or after 3 days or 7 days standing at room temperature was observed.

[2] = Emulsifiability and stability of emulsions: state of dispersion observed (Example 1); conditions: for Just after preparation (state of dispersion): 0.1 g azacycloalkane derivative + 5.0 ml; for After 3 days standing (state of dispersion): room temperature
Experimental: Using 1-[2-(decylthio)ethyl]azacyclopentan-2-one chosen from the azacycloalkane derivatives, and three emulsifying agents as follows, emulsifiabilities and stabilities of the emulsions were examined:
(§1) […] The mixture was agitated under 15,000 rpm for 1 minute by Biomixer (NIHON SEIKI SEISAKUSHO) to prepare each emulsion. The state of dispersion just after the preparation and after 3 days standing at room temperature was observed. The turbidity just after the preparation was measured by extinction at 650 nm, and used as the index of emulsifiability.

[3] = Turbidity just after preparation by extinction, index of emulsifiability (Example 1)
Experimental: as §1

[4] = concentration 1.0% in 1% (W/V) dipotassium glycyrrhizate
[5] = concentration 2.0% in 1% (W/V) dipotassium glycyrrhizate

Q: With `CCCCCCCCCCSCCN1CCCC1=O` [1-[2-(decylthio)ethyl]azacyclopentan-2-one] as the compound, how does the “emulsification and stability (in words)” value ([1]; concentration 0.01% to 10%, using 1% dipotassium glycyrrhizate) read?
A: Its value is “exhibited good emulsification and gave a stable emulsion”.

Q: And the “Observation just after preparation” value [1, 4]?
A: The value was “White clear”.

Q: And the “Observation after 3 days standing” value [1, 4]?
A: The value was “White clear”.

Q: And the “Observation after 7 days standing” value [1, 4]?
A: The value was “White clear”.

Q: What about the “Observation just after preparation” value [1, 5] of the same compound?
A: The value was “White clear”.

Q: And the “Observation after 3 days standing” value [1, 5]?
A: The value was “White clear”.

Q: And the “Observation after 7 days standing” value [1, 5]?
A: Its value is “White clear”.

Q: Which results are given for `CC1(C)[C@@H](O[C@H]2O[C@H](C(=O)[O-])[C@@H](O)[C@H](O)[C@H]2O[C@@H]2O[C@H](C(=O)[O-])[C@@H](O)[C@H](O)[C@H]2O)CC[C@]2(C)[C@H]3C(=O)C=C4[C@@H]5C[C@@](C)(C(=O)O)CC[C@]5(C)CC[C@@]4(C)[C@]3(C)CC[C@@H]12.[K+].[K+]` [dipotassium glycyrrhizate]?
A: Just after preparation (state of dispersion) ([2]; emulsifying agent 0.5%): White clear; After 3 days standing (state of dispersion) ([2]; emulsifying agent 0.5%): White clear; Just after preparation (state of dispersion) ([2]; emulsifying agent 1.0%): White clear; After 3 days standing (state of dispersion) ([2]; emulsifying agent 1.0%): White clear; Just after preparation (state of dispersion) ([2]; emulsifying agent 2.0%): White clear; After 3 days standing (state of dispersion) ([2]; emulsifying agent 2.0%): White clear; Just after preparation (state of dispersion) ([2]; emulsifying agent 3.0%): White clear; After 3 days standing (state of dispersion) ([2]; emulsifying agent 3.0%): White clear; emulsification (in words) ([2]; emulsifying agent at 0.1-5%): good emulsification; dissolution (in words) ([2]; emulsifying agent at 4-5%): full dissolution; Turbidity (650 nm) ([3]; emulsifying agent 0.1%): 1.284; Turbidity (650 nm) ([3]; emulsifying agent 0.5%): 0.459; Turbidity (650 nm) ([3]; emulsifying agent 1.0%): 0.437; Turbidity (650 nm) ([3]; emulsifying agent 2.0%): 0.405; Turbidity (650 nm) ([3]; emulsifying agent 3.0%): 0.346; Turbidity (650 nm) ([3]; emulsifying agent 4.0%): 0.006; Turbidity (650 nm) ([3]; emulsifying agent 5.0%): 0.006

— US5281580A, “Calcitonin-containing emulsion for nasal administration” (Toyo Jozo Company, Ltd., priority 1990, dated 1994)
